These compounds were tested against T1, Peroxisome proliferator-activated receptor alpha (Homo sapiens) (UniProt Q07869) (assay: Agonist activity at yeast Gal4-fused human PPARalpha LBD transfected in human HepG2 cells assessed as transactivation by measuring beta-galactosidase activity incubated for 20 hrs by luminometry relative to control). Conditions: filed as agonist.
T1 sequence (whole entry): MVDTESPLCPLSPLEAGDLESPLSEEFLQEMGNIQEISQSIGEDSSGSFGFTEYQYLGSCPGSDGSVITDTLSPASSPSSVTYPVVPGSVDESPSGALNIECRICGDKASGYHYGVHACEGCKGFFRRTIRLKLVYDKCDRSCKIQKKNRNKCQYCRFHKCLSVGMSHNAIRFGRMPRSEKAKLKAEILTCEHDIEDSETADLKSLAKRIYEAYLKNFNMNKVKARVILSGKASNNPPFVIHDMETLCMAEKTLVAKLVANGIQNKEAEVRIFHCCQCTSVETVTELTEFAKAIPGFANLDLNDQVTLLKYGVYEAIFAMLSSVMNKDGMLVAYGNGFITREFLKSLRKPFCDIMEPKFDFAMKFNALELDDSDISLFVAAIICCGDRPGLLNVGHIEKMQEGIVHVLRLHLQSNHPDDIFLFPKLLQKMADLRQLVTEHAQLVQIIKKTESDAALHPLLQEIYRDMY
Assay type: cell-based

Row | SMILES | Emax
1 | CC(C)(C)OC(=O)NC(COCc1ccc(-c2ccccc2)cc1)C(=O)O (stereo not given) | 100%
2 | CC(C)(C)OC(=O)NC(CSCc1ccc(C(=O)c2ccc([N+](=O)[O-])cc2)cc1)C(=O)O (stereo not given) | 103%
3 | COc1ccc(C(=O)c2ccc(CSCC(NC(=O)OC(C)(C)C)C(=O)O)cc2)cc1 (stereo not given) | 99%
4 | CC(C)(C)OC(=O)NC(CSCc1ccc(C(=O)c2ccc(C(F)(F)F)cc2)cc1)C(=O)O (stereo not given) | 77%
5 | CC(C)(C)OC(=O)NC(CSCc1ccc(Cc2ccccc2)cc1)C(=O)O (stereo not given) | 64%

The compounds below were run against T2, Peroxisome proliferator-activated receptor gamma (Homo sapiens, UniProt P37231) (assay: Agonist activity at yeast Gal4-fused human PPARgamma transfected in human HepG2 cells assessed as transactivation by measuring beta-galactosidase activity incubated for 20 hrs by luminometry). Conditions: not given.
T2 sequence (P37231 whole entry): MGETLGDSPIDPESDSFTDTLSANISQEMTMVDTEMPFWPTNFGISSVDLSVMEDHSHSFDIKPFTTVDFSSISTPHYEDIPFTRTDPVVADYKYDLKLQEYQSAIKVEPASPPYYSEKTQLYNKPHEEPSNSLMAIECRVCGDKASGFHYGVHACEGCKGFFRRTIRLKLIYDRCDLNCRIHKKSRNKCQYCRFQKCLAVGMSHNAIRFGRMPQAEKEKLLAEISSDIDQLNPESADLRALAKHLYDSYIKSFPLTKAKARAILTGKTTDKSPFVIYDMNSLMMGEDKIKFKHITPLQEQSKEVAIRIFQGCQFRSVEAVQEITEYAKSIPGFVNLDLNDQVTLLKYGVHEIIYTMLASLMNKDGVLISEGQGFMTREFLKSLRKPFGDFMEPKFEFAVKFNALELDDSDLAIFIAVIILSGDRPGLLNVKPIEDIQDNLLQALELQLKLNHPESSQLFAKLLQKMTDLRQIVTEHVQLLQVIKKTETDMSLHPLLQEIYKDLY
Assay type: cell-based

Row | SMILES | EC50
6 | CC(C)(C)OC(=O)NC(COCc1ccc(-c2ccccc2)cc1)C(=O)O (stereo not given) | 13 µM
7 | CC(C)(C)OC(=O)NC(CSCc1ccc(C(=O)c2ccc([N+](=O)[O-])cc2)cc1)C(=O)O (stereo not given) | 12.8 µM
8 | COc1ccc(C(=O)c2ccc(CSCC(NC(=O)OC(C)(C)C)C(=O)O)cc2)cc1 (stereo not given) | 7.5 µM
9 | CC(C)(C)OC(=O)NC(CSCc1ccc(C(=O)c2ccc(C(F)(F)F)cc2)cc1)C(=O)O (stereo not given) | 2.2 µM
10 | CC(C)(C)OC(=O)NC(CSCc1ccc(Cc2ccccc2)cc1)C(=O)O (stereo not given) | 3.4 µM

The compounds below were run against T3, Peroxisome proliferator-activated receptor alpha (Homo sapiens, UniProt Q07869) (assay: Agonist activity at yeast Gal4-fused human PPARalpha LBD transfected in human HepG2 cells assessed as transactivation by measuring beta-galactosidase activity incubated for 20 hrs by luminometry). Conditions: not given.
T3 sequence (Q07869 whole entry): T1 sequence (whole entry)
Assay type: cell-based

Row | SMILES | EC50
11 | CC(C)(C)OC(=O)NC(COCc1ccc(-c2ccccc2)cc1)C(=O)O (stereo not given) | 7.2 µM
12 | CC(C)(C)OC(=O)NC(CSCc1ccc(C(=O)c2ccc([N+](=O)[O-])cc2)cc1)C(=O)O (stereo not given) | 4.8 µM
13 | COc1ccc(C(=O)c2ccc(CSCC(NC(=O)OC(C)(C)C)C(=O)O)cc2)cc1 (stereo not given) | 0.38 µM
14 | CC(C)(C)OC(=O)NC(CSCc1ccc(C(=O)c2ccc(C(F)(F)F)cc2)cc1)C(=O)O (stereo not given) | 0.25 µM
15 | CC(C)(C)OC(=O)NC(CSCc1ccc(Cc2ccccc2)cc1)C(=O)O (stereo not given) | 0.58 µM
